Test results published in patent US20220008401A1, “COMPOSITIONS AND METHODS FOR TREATING PULMONARY DISEASE WITH MATRIX METALLOPROTEINASE INHIBITORS” (DARSHA LLC, priority 2019, published 2022).

Tests used:
LPS injured mice [1] = assay: FITC-albumin BALF:serum ratio (vascular permeability/edema), LPS-injured mice, single inhaled dose; type: in vivo, C57BL/6J mice; conditions: LPS 1.5 mg/kg; 24 hours later single aerosolized dose 35 mg/kg; sacrifice one hour after; n=6/group (control 0.44, LPS 1.1)
Method: We next determined if inhaled Compound 1 attenuated specific features of acute inflammatory lung injury that were also observed in response to LPS. Again, 12-week-old male C57BL/6J mice were intranasally instilled with LPS (1.5 mg/kg of 1 mg/ml solution in sterile PBS). 24 hours later, these mice received a single dose of aerosolized MMP inhibitor (Compound 1, dissolved in PBS, 35 mg/kg) or PBS alone and a tail vein injection of FITC labeled albumin (FITC-albumin). One hour following nebulization, the mice were sacrificed. The left lung was fixed in formalin from each animal, paraffin embedded, sectioned and stained with H&E to examine histological features indicative of lung injury. These were achieved by visually scoring each slide based on a lung injury scoring system developed by the American Thoracic Society for animal models of inflammatory lung injury.
Tissue edema was assessed using two methods. First, serum and BALF fluid were collected from mice and FITC-albumin levels were measured in each using a fluorescent microplate reader. Fluid leakage into injured lungs is indicative of increased vascular permeability and could be indicative of edema. A greater fluid leakage would also be characterized by increased levels of FITC-albumin in the BALF. To determine the level of vascular permeability and edema, the ratio of BALF FITC-albumin to serum FITC-albumin was calculated. […]

LPS injured mice [2] = assay: Lung injury score (LIS) and H&E sections, LPS-injured mice, q6h x 4 doses; type: in vivo
LPS injured mice [3] = assay: Lung wet:dry weight ratio, LPS-injured mice, q6h x 4 doses; type: in vivo; conditions: LPS then Compound 1 every 6 hours for 4 doses; right lung; n=5 (LPS alone 19.44±1.6, PBS 7.5±0.12)
Method: Based on the data, the effect of a 6 hour dosing interval (q6h) of Compound 1 on injured mice lung was explored. FIG. 8B schematizes the experimental LPS injury/Compound 1 treatment workflow utilized unless otherwise indicated. Briefly, mice were nasally instilled with LPS (1.5 mg/kg) followed by initiation of Compound 1 treatment 24 hours later (i.e., after a 24 hours rest period). Four doses of Compound 1 (12 mg/kg) were administered via nebulizer every 6 hours to maintain a constant presence of compound in the lung. PBS was administered as a control. Mice were sacrificed 6 hours following the fourth dose. A major feature of ALI/ARDS is non-cardiogenic pulmonary edema resulting in profound hypoxemia. […] We next investigated if attenuation of edema occurred with the alternative treatment schedule where LPS-injured mice were treated with Compound 1 every 6 hours for 4 doses. Total lung edema was determined by assessing lung wet:dry ratios under each experimental condition. Following completion of Compound 1 treatment, the right lung was removed and immediately weighed followed by desiccation for 72 hours and weighed a second time to determine the dry weight. Wet:dry weight ratios were then calculated.

LPS injured mice [4] = assay: FITC-albumin exclusion assay (BALF:serum), LPS-injured mice, q6h x 4 doses; type: in vivo; conditions: LPS then inhaled Compound 1 every 6 hours for 4 doses; n=5 (LPS alone 1.04±0.13, PBS 0.44±0.11)
Method: Based on the data, the effect of a 6 hour dosing interval (q6h) of Compound 1 on injured mice lung was explored. FIG. 8B schematizes the experimental LPS injury/Compound 1 treatment workflow utilized unless otherwise indicated. Briefly, mice were nasally instilled with LPS (1.5 mg/kg) followed by initiation of Compound 1 treatment 24 hours later (i.e., after a 24 hours rest period). Four doses of Compound 1 (12 mg/kg) were administered via nebulizer every 6 hours to maintain a constant presence of compound in the lung. PBS was administered as a control. Mice were sacrificed 6 hours following the fourth dose. It was next determined if LPS induced edema was a result of increased permeability of the pulmonary vascular barrier. This was achieved using a FITC-albumin exclusion assay. Approximately 1 hour prior to sacrifice, mice received a tail vein injection of 3 mg of FITC labeled albumin. BALF and serum were collected and the amount of labeled albumin in each sample (BALF FITC Albumin:serum FITC Albumin) was determined using a fluorescent plate reader.

neutrophils = assay: Neutrophil influx: myeloperoxidase staining and BALF differential cell counts, LPS-injured mice, q6h x 4 doses; type: in vivo
Method: Mice were nasally instilled with LPS followed by treatment with CGS every 6 hours for 4 doses. Mice were sacrificed 6 hours after the 4th dose of Compound 1 and lungs and BALF were collected for analysis. Paraffin embedded lung sections ([…]) were stained for myeloperoxidase, a neutrophil marker, followed by detection using DAB, to assess parenchymal neutrophil infiltration.
Differential cell counts were taken from each animal's cytospin with at least 3 separate images counted.

human neutrophils = assay: Human neutrophil migration in modified Boyden chamber (FMLP chemoattractant); type: cell-based; conditions: for neutrophil migration into the basal chamber: 1 hour
Method: To determine if this effect was relevant in humans we utilized a modified Boyden chamber to assess the effect of Compound 1 on migration of human neutrophils. […] The basal chamber was filled with media containing the chemoattractant N-Formylmethionyl-leucyl-phenylalanine (FMLP) or vehicle. The apical chamber was seeded with ˜100,000 neutrophils with the addition of Compound 1 or vehicle. In the basal chamber, the neutrophils were allowed to migrate for 1 hour after which the basal chamber was fixed, stained with DAPI, and photographed. Five fields per well were imaged and the number of neutrophils counted using NIH ImageJ.

[5] = test system: mice exposed to cigarette smoke; assay: Cigarette smoke exposure model, BALF total cell counts; type: in vivo; conditions: cigarette smoke 10 days; inhaled Compound 1 once a day for last four days; sacrifice 1 hour after final dose
Method: In order to determine if the observed effects of Compound 1 were specific to a model of acute lung injury, we exposed mice to cigarette smoke, a more chronic model of lung injury, for 10 days while treating once a day with inhaled Compound 1 for the last four days of smoke exposure. Mice were sacrificed 1 hour following their final dose of Compound 1 on the 10th day. BALF was collected and total cell counts were performed. […] (*p<0.05).

Which results are given for “butanamide, N-hydroxy-2-[[(4-hydroxyphenyl)sulfonyl](3-pyridinylmethyl)amino]-3-methyl, hydrochloride, (2R) [Compound 1]”?
ratio of BALF FITC-albumin to serum FITC-albumin (LPS injured mice [1]): 0.49; Lung Injury Score (LIS) (LPS injured mice [2]; LPS 1.5 mg/kg, four doses (12 mg/kg) via nebulizer every 6 hours from 24 hours after LPS, n=5 (LPS only 0.524±0.054, PBS only 0.188±0.025)): 0.277±0.031 LIS; inflammation in H&E stained lung sections (qualitative) (LPS injured mice [2]; LPS then four nebulized doses every 6 hours, vs mice only receiving LPS): reduced inflammation; wet:dry weight ratio (LPS injured mice [3]): 11.80±0.86; FITC-albumin BALF:serum ratio (LPS injured mice [4]): 0.49±0.13; overall inflammatory cell count in BALF (neutrophils; LPS then every 6 hours for 4 doses, n≥4 (LPS only 8.0e6±5.7e6)): 8.6e5±3.7e5 cells/mL; parenchymal neutrophil infiltration (myeloperoxidase staining) (neutrophils; LPS then every 6 hours for 4 doses, sacrifice 6 hours after 4th dose): qualitatively reduced parenchymal neutrophil infiltration; neutrophil count within the BALF (neutrophils; LPS-CGS group, every 6 hours for 4 doses, n≥5 (LPS-PBS 8.0e6±5.7e6)): 2.4e6±1.2e6 cells/ml; neutrophil migration into the basal chamber (human neutrophils; 10 nm CGS, no FMLP, n=4): 233±61 cells; neutrophil migration into the basal chamber (human neutrophils; 20 nm CGS, no FMLP, n=4): 293±148 cells; inhibition of FMLP-induced neutrophil migration (human neutrophils; FMLP + 10 nm Compound 1): did not achieve significance; neutrophil migration into the basal chamber (human neutrophils; FMLP+20 nm CGS, n=4 (FMLP alone 4280±480)): 2819±362 cells; smoke induced increase in BALF cell counts [5]: failed to attenuate
